Test results taken from patent EP2332528A1, “Substituted aromatic dicarbonic acid amides as medicaments” (Grünenthal GmbH, priority 2009, dated 2011).

Test system: vGLUT1- bzw. vGLUT2-Transporter
Assay: Glutamate uptake in rat crude synaptic vesicles ([3H]-glutamate uptake)
Type: biochemical, Ratte
Conditions: for IC50: read-out: VGLUT (Ratte), IC50; for VGLUT (Ratte), Hemmung [%]: test concentration not given
Text: I. Funktionelle Untersuchung an den vGLUT1- bzw. vGLUT2-Transportern
Die agonistische bzw. antagonistische Wirkung der zu untersuchenden Verbindungen am vGLUT1- bzw. vGLUT2-Transporter der Spezies Ratte kann mit folgendem Assay bestimmt werden.
Glutamat-Uptake in Rattenvesikel ('rat crude synaptic vesicles')
Die Präparation von Vesikeln wurde aus Rattengehirn-Homogenaten (männlichen Ratten, Stamm Wistar SPF, 150-250 g Gewicht) durchgeführt gemäß Roseth et al. (1995) J. Neurochem. 65: 96-103, der sich auf Whittaker et al. (1964) Biochem J. 90, 293-303 und Fykse und Fonnum (1988) J. Neurochem. 50: 1237-1242 bezieht.
Hierzu wurden frisch entnommene Rattengehirne in 0,32 M Saccharose, 10 mM TRIS-maleat, 1 mM EGTA, pH 7,4 (10 ml/g Frischgewicht) mit einem Potter-Homogenisator (Fa. Braun/Melsungen; 5 Kolbenhübe bei 800 Upm) unter Eiskühlung homogenisiert und anschließend für 10 Minuten bei 3.000 g und 4°C zentrifugiert. Der resultierende Überstand wurde bei 20.000 g für 30 Minuten bei 4°C zentrifugiert. Das entstandene Pellet wurde dann im Verhältnis 1:3 mit 10 mM TRIS-maleate, 0,1 mM EGTA, pH 7,4 osmotisch geschockt und die Suspension bei 17000g für 30 min (4°C) zentrifugiert. Die im Überstand verbliebenen Vesikel wurden nun auf einen Dichtegradienten aus 0,6 M Saccharose in 10 mM TRIS-maleat, 1 mM EGTA, pH 7.4 und 0.4 M Saccharose in 10 mM TRIS-maleat, 1 mM EGTA, pH 7.4 geschichtet. Eine Ultrazentrifugation der Gradienten im Ausschwingrotor bei 65000g für 2h (4°C) schloss sich an. Die Vesikel-Fraktion wurde von der 0.4 M Saccharose-Bande isoliert und im Uptake-Versuch eingesetzt.
Die Substratlösung für den Uptake von [^3H]-Glutamat bestand aus ATP (neutralisiert mit Trisma base; 2 mM im Endansatz), Glutamat (0.5 mM im Endansatz) und ^3H-Glutamat (0.5 µCi im Endansatz). In 14 ml-Reagiergefäßen (Sarstedt, Artikel-Nr.: 798438) wurden jeweils 0,3 ml Gesamtvolumina (n=2/Probe) pipettiert in der folgenden Reihenfolge: 1.) 165 µl Inkubationspuffer (110 mM Kaliumtartrat, 10 mM TRIS-maleat, pH 7,4, 4 mM MgCl2), 2.) 10 µl Testsubstanz oder Vehikelkontrolle oder blank, 3.) 100 µl synaptische Vesikel. Es schloss sich eine Vorinkubation von 15 min bei 30°C an (nur blank-Ansätze befanden sich hierbei auf Eis). Danach wurde der Uptake durch Zugabe von 25 µl der oben beschriebenen Substratlösung gestartet. Die Reaktion wurde nach 5 min durch Zugabe von 7,0 ml eiskalter 150 mM KCI gestoppt. Anschließend wurden die Proben mit Hilfe des Brandel Cell Harvesters Typ M-24R über einen Membranfilter der Porengröße 0,8 µm abgesaugt und zweimal mit eiskalter 150 mM KCI nachgewaschen. Die Messung erfolgte am beta-Counter nach 15 h in 10 ml Szintillatorflüssigkeit (Filter Count).
Die Affinität der Verbindungen der allgemeinen Formel (I) für den vGLUT1- bzw. vGLUT2-Transporter wurde wie vorstehend beschrieben bestimmt (Pharmakologische Methoden).

Compound | IC50 | VGLUT (Ratte), Hemmung [%]
O=C(Nc1ccccc1C(=O)O)c1cccc(C(=O)Nc2ccccc2C(=O)O)c1 [Beispiel 2, 2-(3-(2-Carboxyphenylcarbamoyl)benzamido)benzoesäure] | 3350 nM | 78%
O=C(Nc1ccccc1C(=O)O)c1ccc(Oc2ccc(C(=O)Nc3ccccc3C(=O)O)cc2)cc1 [Beispiel 3, 2-(4-(4-(2-Carboxyphenylcarbamoyl)phenoxy)benzamido)-benzoesäure] | 2260 nM | 88%
O=C(Nc1cc([N+](=O)[O-])ccc1C(=O)O)c1ccc(C(=O)Nc2cc([N+](=O)[O-])ccc2C(=O)O)cc1 [Beispiel 5, 2-(4-(2-Carboxy-5-nitrophenylcarbamoyl)benzamido)-4-nitrobenzoesäure] | 860 nM | 88%
O=C(Nc1cc([N+](=O)[O-])ccc1C(=O)O)c1cccc(C(=O)Nc2cc([N+](=O)[O-])ccc2C(=O)O)c1 [Beispiel 4, 2-(3-(2-Carboxy-5-nitrophenylcarbamoyl)benzamido)-4-nitrobenzoesäure] | 320 nM | 92%
O=C(Nc1ccccc1C(=O)O)c1ccc(C(=O)Nc2ccccc2C(=O)O)cc1 [Beispiel 1, 2-(4-(2-Carboxyphenylcarbamoyl)benzamido)benzoesäure] | 1290 nM | 91%
